Laboratory results published in patent publication US20120064090A1, “THERAPEUTIC AGENT FOR CANCER HAVING REDUCED SENSITIVITY TO MOLECULAR TARGET DRUG AND PHARMACEUTICAL COMPOSITION FOR ENHANCING SENSITIVITY TO MOLECULAR TARGET DRUG” (KRINGLE PHARMA INC., priority 2009, published 2012).

Assays:
HCC827 [1] = test: Induction of gefitinib resistance by various growth factors; assay type: cell-based, human; details: growth factor 20 ng/mL, gefitinib 0.3 or 1 μM, 72 hours, FIG. 3(b)
Method: (§1) In the same manner as in the above (a), PC-9 or HCC827 was seeded at 2×10^3 cells/well on 96-well plates, and after 24-hour culture, gefitinib was added to the wells so that the final concentration might be 0.3 or 1 μM. HGF, EGF, TGF-α or IGF-I was further added to give a final concentration of 20 ng/mL and then culture was continued for 72 hours. Wells without gefitinib and wells into which a culture medium was added instead of the growth factors were prepared for this experiment. After 72-hour culture, the degree of cell growth was measured by the MTT method and the growth rate was calculated in the same manner as in the above (a).

PC-9 [2] = test: as above; assay type: cell-based, human; details: growth factor 20 ng/mL, gefitinib 0.3 or 1 μM, 72 hours, FIG. 3(a)
Method: as §1

PC-9/HGF = test: PC-9 transfected with HGF expression vector, MTT growth rate; assay type: cell-based, human; details: gefitinib 0.3 μM, 72 hours, FIG. 4
Method: (§2) An HGF expression vector was prepared according to the description in “Ueki T, Kaneda Y, Tsutsui H, et al. Hepatocyte growth factor gene therapy of liver cirrhosis in rats. Nature Medicine 5, 226-230 (1 Feb. 1999)”. On the day before transfection, PC-9 prepared in a culture medium without any antibiotics was seeded at 2×10^4 cells/400 μL on 24-well plates and then cultured for 24 hours. The HGF expression vector was transfected into the cells by use of Lipofectamine 2000 (1 μL) (PC-9/HGF). As a control, a vector without the HGF gene was similarly transfected into the cells (PC-9/mock). After 24-hour culture, the cells were washed with PBS. Then, 0.3 μM of gefitinib (final concentration), 2 μg/mL of the anti-human HGF neutralizing antibody (final concentration) and/or 2 μg/mL of the control IgG (final concentration) were added, or not added, and then culture was continued for 72 hours. After 72-hour culture, the degree of cell growth was measured by the MTT method and the growth rate was calculated in the same manner as in Example 1.

PC-9/mock = test: PC-9 transfected with vector without the HGF gene, MTT growth rate; assay type: cell-based, human; details: gefitinib 0.3 μM, 72 hours, FIG. 4
Method: as §2

H1975 [3] = test: Effects of gefitinib or CL-387,785 on H1975, MTT growth rate; assay type: cell-based, human; details: 0.01 to 10 μM, 72 hours, FIG. 8
Method: (§3) After 80% confluent H1975 was stripped and collected, the cells were seeded at 2×10^3 cells/well on 96-well plates and cultured for 24 hours. After that, gefitinib or CL-387,785 was added to each well so that the final concentration might be set to the seven levels of 0.01 to 10 μM, and then culture was continued for 72 hours. After that, 50 μl, of an MTT solution (2 mg/mL, manufactured by Sigma) was added and incubation was performed at 37° C. for 2 hours. The culture media were removed, and dark blue crystals were dissolved by adding 100 μL of DMSO. The absorbance was measured with a microplate reader MTP-120 (Corona Electric Co., Ltd.) at the detection and reference wavelengths of 550 nm and 630 nm, respectively. The growth rate was shown as a relative value based on an untreated control. Each experiment was performed in triplicate and repeated thrice independently.

[4] = system: tumor formed of PC-9 and MRC-5 cells; test: Xenograft tumor (PC-9 + MRC-5) transplanted into SCID mice; assay type: in vivo; details: PC-9 + MRC-5 s.c., days 4 to 16, gefitinib 25 mg/kg/day oral, antibody 5 mg/kg/day i.p., NK4 9 mg/kg/day i.p., FIG. 6
Method: SCID mice (female, 5 weeks old) were purchased from CLEA Japan.
100 μL of a cell suspension containing PC-9 (5×10^6 cells) and MRC-5 (5×10^6 cells) was subcutaneously inoculated from the back skin of each SCID mouse. Four days later, mice bearing a tumor exceeding 4 mm in diameter were randomly divided into 6 groups (5 mice per group) as shown in Table 1.
In gefitinib-treated groups (groups 4, 5 and 6 in Table 1), gefitinib (25 mg/kg/day) was orally administered once daily in the morning for 13 days from 4 days to 16 days after cell inoculation. In gefitinib-non-treated groups (groups 1, 2 and 3 in Table 1), a water containing 1% Tween80 was orally administered once daily in a similar manner to the above. In anti-HGF neutralizing antibody-treated groups (groups 2 and 5 in Table 1), the anti-HGF neutralizing antibody (5 mg/kg/day) was intraperitoneally administered once daily immediately after gefitinib administration for 13 days from 4 days to 16 days after cell inoculation. In NK4-treated groups (groups 3 and 6 in Table 1), NK4 (9 mg/kg/day) was intraperitoneally administered in divided portions twice a day in the morning immediately after gefitinib administration and in the evening for 13 days from 4 days to 16 days after cell inoculation.
The width and length of tumor were measured every other day, and the tumor area (width×length) was calculated. […]

H1975 [5] = test: Effects of SU11274 on H1975 with HGF-induced CL-387,785-resistance; assay type: cell-based, human; details: CL-387,785 0.3 μM, HGF 50 ng/mL, antibody 2 μg/mL, NK4 0.3 μM, 72 hours, FIG. 12
Method: H1975 was seeded at 2×10^3 cells/well on 96-well plates and cultured for 24 hours. […] The degree of cell growth was measured by the MTT method and the growth rate was calculated in the same manner as in the above (a).

PC-9 [6] = test: Effects of SU11274 on PC-9 with HGF-induced gefitinib-resistance; assay type: cell-based, human; details: HGF 20 ng/mL, gefitinib 0.3 μM, antibody 1 μg/mL, NK4 0.3 μM, SU11274 0.3 μM, 72 hours, FIG. 11
Method: as §3, with “PC-9” for “After 80% confluent H1975”, “was” for “was stripped and collected, the cells were”, “After that, gefitinib or CL-387,785 was added to each well so that the final concentration might be set to the seven levels of 0.01 to 10 μM, and then culture was continued for 72 hours.” left out, “μL” for “μl,”

HCC827 [7] = test: Induction of gefitinib resistance by HGF, MTT growth rate; assay type: cell-based, human; details: HGF 2 to 50 ng/mL, gefitinib 0.01 to 1 μM, 72-hour culture, FIG. 1(b)
Method: (§4) PC-9 or HCC827 was seeded at 2×10^3 cells/well on 96-well plates and cultured for 24 hours. After that, gefitinib and HGF were added to the wells in combinations thereof at different concentrations. Specifically, gefitinib was added to each well so that the final concentration might be set to the five levels of 0.01 to 1 μM. Wells without gefitinib were also prepared for this experiment. An HGF solution was added to the wells so that the final concentration might be set to the five levels of 2 to 50 ng/mL. Wells without HGF were also prepared for this experiment. After 72-hour culture, 50 μL of an MTT solution (2 mg/mL, manufactured by Sigma) was added and incubation was performed at 37° C. for 2 hours. The culture media were removed, and dark blue crystals were dissolved by adding 100 μL of DMSO. The absorbance was measured with a microplate reader MTP-120 (Corona Electric Co., Ltd.) at the detection and reference wavelengths of 550 nm and 630 nm, respectively. The growth rate was shown as a relative value based on an untreated control. Each experiment was performed in triplicate and repeated thrice independently.

PC-9 [8] = test: as above; assay type: cell-based, human; details: HGF 2 to 50 ng/mL, gefitinib 0.01 to 1 μM, 72-hour culture, FIG. 1(a)
Method: as §4

PC-9 [9] = test: Single culture of PC-9 with or without HGF, MTT growth rate; assay type: cell-based, human; details: PC-9 single culture; HGF 50 ng/mL; gefitinib 0.3 μM; 72 hours; FIG. 5
Method: In the case of single culture of PC-9, PC-9 was seeded in each well of 24-well plates at 8×10^3 cells/700 μL and then cultured for 24 hours. After that, 50 ng/mL of HGF (final concentration) was added or not added, 0.3 μM of gefitinib (final concentration) was added or not added, 2 μg/mL of the control IgG (final concentration) or 2 μg/mL of the anti-human HGF neutralizing antibody (final concentration) was added or not added, and then culture was continued for 72 hours. After 72-hour culture, the degree of cell growth was measured by the MTT method and the growth rate was calculated in the same manner as in Example 1.

H1975 [10] = test: Induction of CL-387,785 resistance by HGF; assay type: cell-based, human; details: HGF 50 ng/mL, CL-387,785 0.03 to 3 μM, 72 hours, FIG. 9
Method: In the same manner as in the above (a), H1975 was seeded at 2×10^3 cells/well on 96-well plates. After 24-hour culture, CL-387,785 was added to the wells so that the final concentration might be set to the five levels of 0.03 to 3 μM. An HGF solution was further added to give a final concentration of 50 ng/mL, or was not added, and then culture was continued for 72 hours. The degree of cell growth was measured by the MTT method and the growth rate was calculated in the same manner as in the above (a).

Question: Which results are given for IGF-I?
Answer: induction of gefitinib resistance by growth factor (growth rate) (HCC827 [1]): slightly induced gefitinib resistance; induction of gefitinib resistance by growth factor (growth rate) (PC-9 [2]): slightly induced gefitinib resistance

Question: `COc1cc2ncnc(Nc3ccc(F)c(Cl)c3)c2cc1OCCCN1CCOCC1` [gefitinib] was tested. Which “sensitivity of cells to gefitinib (growth rate)” value (PC-9/HGF) did it give?
Answer: The value was “less sensitive”.

Question: What about the “sensitivity of cells to gefitinib (growth rate)” value (PC-9/mock) of the same compound?
Answer: Its value is “sensitive”.

Question: What about the “sensitivity of H1975 to the drug (growth rate)” value (H1975 [3]) of the same compound?
Answer: The value was “resistant”.

Question: And the “tumor volume / tumor growth over time” value [4]?
Answer: The value was “increase in tumor volume was inhibited, but no significant regression was observed”.

Question: What does the source list for `Cc1[nH]c(/C=C2\C(=O)Nc3ccc(S(=O)(=O)N(C)c4cccc(Cl)c4)cc32)c(C)c1C(=O)N1CCN(C)CC1` [SU11274, reference compound]?
Answer: inhibition of HGF-induced hyposensitivity of H1975 to CL-387,785 (H1975 [5]): significantly inhibited; inhibition of HGF-induced hyposensitivity of PC-9 to gefitinib (PC-9 [6]): significantly inhibited

Question: What does the source list for TGF-α?
Answer: induction of gefitinib resistance by growth factor (growth rate) (HCC827 [1]): slightly induced gefitinib resistance; induction of gefitinib resistance by growth factor (growth rate) (PC-9 [2]): slightly induced gefitinib resistance

Question: How did the “induction of gefitinib resistance (growth rate)” value (HCC827 [7]) turn out when HGF was run?
Answer: The value was “induced gefitinib resistance of PC-9 and HCC827 in a concentration-dependent manner”.

Question: What about the “induction of gefitinib resistance (growth rate)” value (PC-9 [8]) of the same compound?
Answer: The value was “induced gefitinib resistance of PC-9 and HCC827 in a concentration-dependent manner”.

Question: And the “induction of gefitinib resistance (hyposensitivity) of PC-9” value (PC-9 [9])?
Answer: Its value is “induced gefitinib resistance”.

Question: And the “effect of HGF on sensitivity of H1975 to CL-387,785” value (H1975 [10])?
Answer: The value was “reduced the sensitivity of H1975 to CL-387,785”.

Question: What about the “induction of gefitinib resistance by growth factor (growth rate)” value (shortened to “induction … by growth factor (growth rate)”) (HCC827 [1]) of the same compound?
Answer: Its value is “remarkable capability of inducing gefitinib resistance”.

Question: What about the “induction … by growth factor (growth rate)” value (PC-9 [2]) of the same compound?
Answer: Its value is “remarkable capability of inducing gefitinib resistance”.

Question: Which “sensitivity of H1975 to the drug (growth rate)” value (H1975 [3]) does the source give for `CC#CC(=O)Nc1ccc2ncnc(Nc3cccc(Br)c3)c2c1` [CL-387,785] here?
Answer: The value was “sensitive”.

Question: For “EGF (NSDSECPLSHDGYCLHDGVCMYIEALDKYACNCVVGYIGERCQYRDLKWWELR; Epidermal growth factor; UniProt P01133 971-1023, looked up) [growth factor purchased from Invitrogen]”, which “induction … by growth factor (growth rate)” value (HCC827 [1]) is on record?
Answer: Its value is “slightly induced gefitinib resistance”.

Question: What about the “induction … by growth factor (growth rate)” value (PC-9 [2]) of the same compound?
Answer: The value was “slightly induced gefitinib resistance”.
